Measurements reported in ChEMBL document CHEMBL1201862, “PubChem BioAssay data set” (2004).
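Tested at 5 concentrations; 48 h exposure; 96-well plates; endpoints linearly interpolated, else capped at highest concentration. GI50 marks 50% less growth.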 The source made the active and inactive calls. Cut-off read from the data, not from the text of the source: active = GI50 up to about 1.1 µM and inactive = higher.

Experiments:
Test in all cases: DTP human tumour cell line panel, 48 h
SK-MEL-2 = tested on: SK-MEL-2
CCRF-CEM = tested on: CCRF-CEM
OVCAR-4 = tested on: OVCAR-4
MCF7 = tested on: MCF7
K562 = tested on: K562
SK-OV-3 = tested on: SK-OV-3
HL-60 = tested on: HL-60
786-0 = tested on: 786-0
HCC 2998 = tested on: HCC 2998
UACC-62 = tested on: UACC-62
SK-MEL-28 = tested on: SK-MEL-28
RPMI-8226 = tested on: RPMI-8226
M14 = tested on: M14
LOX IMVI = tested on: LOX IMVI
OVCAR-3 = tested on: OVCAR-3
HOP-92 = tested on: HOP-92
HT-29 = tested on: HT-29
SF-295 = tested on: SF-295
HCT-15 = tested on: HCT-15
NCI-H226 = tested on: NCI-H226

| SMILES | GI50 (SK-MEL-2) | GI50 (CCRF-CEM) | GI50 (OVCAR-4) | GI50 (MCF7) | GI50 (K562) | GI50 (SK-OV-3) | GI50 (HL-60) | GI50 (786-0) | GI50 (HCC 2998) | GI50 (UACC-62) | GI50 (SK-MEL-28) | GI50 (RPMI-8226) | GI50 (M14) | GI50 (LOX IMVI) | GI50 (OVCAR-3) | GI50 (HOP-92) | GI50 (HT-29) | GI50 (SF-295) | GI50 (HCT-15) | GI50 (NCI-H226) |
| --- | --- | --- | --- | --- | --- | --- | --- | --- | --- | --- | --- | --- | --- | --- | --- | --- | --- | --- | --- | --- |
| N#Cc1c(-c2ccc([N+](=O)[O-])cc2)c(C#N)c(=O)n(NS(=O)(=O)c2ccccc2)c1O | > 100 µM (inactive) | > 100 µM (inactive) | > 100 µM (inactive) | > 100 µM (inactive) | > 100 µM (inactive) | > 100 µM (inactive) | > 100 µM (inactive) | > 100 µM (inactive) | > 100 µM (inactive) | > 100 µM (inactive) | > 100 µM (inactive) | > 100 µM (inactive) | > 100 µM (inactive) | > 100 µM (inactive) | > 100 µM (inactive) | > 100 µM (inactive) | > 100 µM (inactive) | > 100 µM (inactive) | > 100 µM | > 100 µM (inactive) |
| CN(C)c1cccc(/C=C(\C#N)c2ccccc2)c1 | 0.316 µM (active) | 0.794 µM (active) | 17.1 µM (inactive) | 0.218 µM (active) | 0.0927 µM (active) | 1.11 µM (active) | 0.0865 µM (active) | 2.21 µM (inactive) | 0.565 µM (active) | 0.792 µM (active) | 7.33 µM (inactive) | 0.579 µM (active) | 0.277 µM (active) | 0.406 µM (active) | 0.157 µM (active) | 2.94 µM (inactive) | 0.213 µM (active) | 0.574 µM (active) | 0.219 µM | 2.55 µM (inactive) |
| Clc1ccc(OCc2nnc3sc(-c4ccc(-c5ccc(Cl)cc5Cl)o4)nn23)c(Cl)c1 | 16.3 µM (inactive) | 25.3 µM (inactive) | 35.5 µM (inactive) | 31.6 µM (inactive) | 24.1 µM (inactive) | 19.1 µM (inactive) | 28.2 µM (inactive) | 13.3 µM (inactive) | 17.9 µM (inactive) | 25.7 µM (inactive) | 23.8 µM (inactive) | 24.2 µM (inactive) | 25.5 µM (inactive) | 19.3 µM (inactive) | 17.1 µM (inactive) | 18.9 µM (inactive) | 22.7 µM (inactive) | 16.9 µM (inactive) | 20.7 µM | 20.4 µM (inactive) |
| CNC(=S)N/N=C(\C)c1nc2cccnc2[nH]1 | > 63.5 µM (inactive) | 24.4 µM (inactive) | 4.12 µM (inactive) | 34.3 µM (inactive) | 95.3 µM (inactive) | 31.8 µM (inactive) | 17.6 µM (inactive) | 43.7 µM (inactive) | 19.1 µM (inactive) | 6.34 µM (inactive) | 82.6 µM (inactive) | 71.9 µM (inactive) | 45.2 µM (inactive) | 43.6 µM (inactive) | 18.6 µM (inactive) | 20.6 µM (inactive) | 36.8 µM (inactive) | 30.3 µM (inactive) | 29.2 µM | 38.1 µM (inactive) |
| COc1ccc2c(c1)Cc1c(NCCN(C)C)ccc(C(=O)NCCCN(C)CCCNC(=O)c3ccc(NCCN(C)C)c4c3Nc3ccc(OC)cc3C4)c1N2 | < 0.01 µM (active) | < 0.0393 µM (active) | < 0.0184 µM (active) | < 0.01 µM (active) | < 0.011 µM (active) | < 0.01 µM (active) | 0.0358 µM (active) | < 0.01 µM (active) | < 0.01 µM (active) | < 0.0228 µM (active) | 0.142 µM (active) | < 0.01 µM (active) | 0.15 µM (active) | < 0.01 µM (active) | < 0.0187 µM (active) | 0.143 µM (active) | < 0.01 µM (active) | 0.0213 µM (active) | 0.728 µM | < 0.0254 µM (active) |
| O=C(Cc1ccccc1)Nc1nc2ccc(Cl)cc2c2nc(-c3ccco3)nn12 | > 67.9 µM (inactive) | > 100 µM (inactive) | – | 4.46 µM (inactive) | > 100 µM (inactive) | 39.6 µM (inactive) | > 100 µM (inactive) | 10.1 µM (inactive) | > 100 µM (inactive) | > 100 µM (inactive) | > 100 µM (inactive) | > 100 µM (inactive) | > 100 µM (inactive) | > 100 µM (inactive) | > 100 µM (inactive) | 2.48 µM (inactive) | > 100 µM (inactive) | 21.7 µM (inactive) | > 100 µM | > 35.6 µM (inactive) |
| COc1cc(C2C3=C(N=C4SC(C(C)=O)=C(C)N42)c2ccccc2CC3)cc(OC)c1OC (stereo not drawn) | > 100 µM (inactive) | > 100 µM (inactive) | > 100 µM (inactive) | 75.5 µM (inactive) | 26.4 µM (inactive) | > 100 µM (inactive) | 30.8 µM (inactive) | > 100 µM (inactive) | > 100 µM (inactive) | > 100 µM (inactive) | > 100 µM (inactive) | 13.8 µM (inactive) | > 100 µM (inactive) | > 100 µM (inactive) | > 100 µM (inactive) | > 100 µM (inactive) | 64.4 µM (inactive) | 68.7 µM (inactive) | – | > 100 µM (inactive) |
